Experiments:
[1] = target: T1, Bromodomain-containing protein 4 (Homo sapiens, UniProt O60885)
Description: Binding affinity to His6-tagged human BRD4 bromodomain-1 (N44 to E168 residues) expressed in Escherichia coli BL21(DE3) assessed as change in melting temperature at 200 uM by SYPRO orange dye based fluorescence assay

[2] = target: T1, Bromodomain-containing protein 4; assay: Inhibition of His6-tagged human BRD4 bromodomain-1 (N44 to E168 residues) expressed in Escherichia coli BL21(DE3) using biotinylated-H4KAc4 as substrate by AlphaScreen assay
[3] = system: LNCaP; assay: Antiproliferative activity against human LNCAP cells; assay type: functional, cell-based
[4] = system: VCaP; assay: Antiproliferative activity against human VCaP cells treated at 12 hrs post cell seeding measured at 72 to 144 hrs post cell seeding by Cell-Titer Glo assay; assay type: functional, cell-based
[5] = system: LNCaP C4-2B; assay: Antiproliferative activity against human C4-2B cells treated at 12 hrs post cell seeding measured at 72 to 144 hrs post cell seeding by Cell-Titer Glo assay; assay type: functional, cell-based
[6] = system: CWR22R; assay: Antiproliferative activity against human 22Rv1 cells treated at 12 hrs post cell seeding measured at 72 to 144 hrs post cell seeding by Cell-Titer Glo assay; assay type: functional, cell-based
[7] = system: LNCaP; assay: Antiproliferative activity against human LNCAP cells treated at 12 hrs post cell seeding measured at 72 to 144 hrs post cell seeding by Cell-Titer Glo assay; assay type: functional, cell-based

Row | SMILES | ΔTm [1] [°C] | IC50 [2] [nM] | further results
1 | Cc1sc2c(c1C)C(c1ccc(Cl)cc1)=N[C@@H](CC(=O)Nc1ccc(O)cc1)c1nnc(C)n1-2 [BIRABRESIB] | – | – | IC50 [3]: 111 nM
2 | Cc1noc(C)c1-c1ccc2c(c1)OC(Cc1ccc(Cl)cc1)C(=O)N2 (stereo not given) | 2.1 | > 20000 | –
3 | Cc1noc(C)c1-c1ccc2c(c1)OC(c1ccccc1Cl)C(=O)N2 (stereo not given) | 5.1 | 490 | –
4 | Cc1noc(C)c1-c1ccc2c(c1)OC(c1cc(Cl)cc(Cl)c1)C(=O)N2 (stereo not given) | 6.3 | 1330 | –
5 | Cc1noc(C)c1-c1ccc2c(c1)OC(c1cccc(Cl)c1)C(=O)N2 (stereo not given) | 4.8 | 510 | –
6 | COC(=O)CN1C(=O)[C@@H](CC2CC2)Oc2cc(-c3c(C)noc3C)ccc21 | 8.9 | 360 | –
7 | Cc1noc(C)c1-c1ccc2c(c1)OC(c1ccc(Cl)cc1)C(=O)N2 (stereo not given) | 5.4 | 880 | –
8 | Cc1noc(C)c1-c1ccc2c(c1)OC(c1cccc(C(F)(F)F)c1)C(=O)N2 (stereo not given) | 3.3 | 2270 | –
9 | Cc1noc(C)c1-c1ccc2c(c1)OC(c1cccc(F)c1)C(=O)N2 (stereo not given) | 7.5 | 620 | –
10 | Cc1noc(C)c1-c1ccc2c(c1)OC(c1ccc(Cl)c(Cl)c1)C(=O)N2 (stereo not given) | 5.7 | 4250 | –
11 | CNC(=O)c1ccc(N2C(=S)N(c3ccc(C#N)c(C(F)(F)F)c3)C(=O)C2(C)C)cc1F [ENZALUTAMIDE] | – | – | IC50 [4]: > 30000 nM; IC50 [5]: 20800 nM
12 | Cc1noc(C)c1-c1ccc2c(c1)O[C@H](CC1CC1)C(=O)N2CCN(C)C | 8.4 | 860 | –
13 | Cc1noc(C)c1-c1ccc2c(c1)O[C@H](CC1CC1)C(=O)N2CC(=O)N(C)C | 6.9 | 3640 | –
14 | Cc1noc(C)c1-c1ccc2c(c1)OC(c1ccccc1C(F)(F)F)C(=O)N2 (stereo not given) | 5.4 | 1140 | –
15 | CCNC(=O)C[C@@H]1N=C(c2ccc(Cl)cc2)c2cc(OC)ccc2-n2c(C)nnc21 [MOLIBRESIB] | – | – | IC50 [3]: 356 nM

Second part, led by results:

Row | ΔTm [1] [°C] | IC50 [2] [nM] | SMILES | further results
16 | 8.1 | 200 | Cc1noc(C)c1-c1ccc2c(c1)OC(CC1CCC1)C(=O)N2 (stereo not given) | –
17 | 3.2 | 6070 | Cc1noc(C)c1-c1ccc2c(c1)O[C@H](Cc1ccccc1)C(=O)N2 | –
18 | 3 | > 20000 | Cc1noc(C)c1-c1ccc2c(c1)OC(Cc1ccccc1)C(=O)N2 (stereo not given) | –
19 | 6.9 | 2120 | Cc1noc(C)c1-c1ccc2c(c1)O[C@H](CC1CC1)C(=O)N2CC(=O)O | –
20 | 8.7 | 400 | Cc1noc(C)c1-c1ccc2c(c1)OC(CC1CC1)C(=O)N2 (stereo not given) | IC50 [4]: 410 nM; IC50 [5]: 590 nM; IC50 [6]: 1940 nM; IC50 [7]: 1030 nM
21 | 8.1 | 290 | CCCC1Oc2cc(-c3c(C)noc3C)ccc2NC1=O (stereo not given) | –
22 | 7.8 | 290 | Cc1noc(C)c1-c1ccc2c(c1)OC(CC1CCCC1)C(=O)N2 (stereo not given) | –
23 | 6.9 | 1170 | Cc1noc(C)c1-c1ccc2c(c1)OC(CC1CCCCC1)C(=O)N2 (stereo not given) | –
24 | 9.4 | 180 | Cc1noc(C)c1-c1ccc2c(c1)OC(CC(C)C)C(=O)N2 (stereo not given) | IC50 [4]: 380 nM; IC50 [5]: 540 nM; IC50 [6]: 6500 nM; IC50 [7]: 570 nM
25 | 7.8 | 200 | CCCCC1Oc2cc(-c3c(C)noc3C)ccc2NC1=O (stereo not given) | IC50 [4]: 1140 nM; IC50 [5]: 590 nM; IC50 [6]: 4520 nM; IC50 [7]: 820 nM
26 | 7.9 | 270 | Cc1noc(C)c1-c1ccc2c(c1)OC(C(C)(C)C)C(=O)N2 (stereo not given) | –
27 | 6.9 | 530 | CSCCC1Oc2cc(-c3c(C)noc3C)ccc2NC1=O (stereo not given) | –
28 | 7.7 | 520 | Cc1noc(C)c1-c1ccc2c(c1)O[C@H](CC1CC1)C(=O)N2C | –
29 | 3.9 | 3540 | Cc1noc(C)c1-c1ccc2c(c1)O[C@@H](CC1CC1)C(=O)N2 | –
30 | 6.9 | 1170 | Cc1noc(C)c1-c1ccc2c(c1)OC(C(C)C)C(=O)N2 (stereo not given) | –

From ChEMBL document CHEMBL4152259, “Benzoxazinone-containing 3,5-dimethylisoxazole derivatives as BET bromodomain inhibitors for treatment of castration-resistant prostate cancer” (Eur J Med Chem, 2018)
